From patent EP0314302A2, “Herbicidal o-carbomethoxy-sulfonylureas” (E.I. DU PONT DE NEMOURS AND COMPANY, priority 1987, dated 1989)

Assays:
[1] = system: Chickweed; assay: Test 10 postemergence safety to crops and weed control; type: in vivo, Stellaria media; details: 16 g/ha, scale 0-100
Description: (§1) The object of these tests was to evaluate the compound of this invention for postemergence safety to crops and weed control. Seedling and budded Macedine grapes were grown in 11.4-cm pots. Flax, green foxtail (Setaria viridis), "Morex" barley, wild oats (Avena fatua), "Era" wheat, annual ryegrass (Lolium multiflorum), wild radish (Raphanus raphanistrum), rape, sunflower, chickweed (Stellaria media) and wild buckwheat (Polygonum convolvulus) were seeded in windowsill pots.
(§2) The plants were sprayed postemergence with Compound I in a non-phytotoxic solvent. Plants were visually rated 15 and 27 days after treatment (DAT). Injury and weed control ratings were based on the scale of 0 to 100 where 0 = no effect, 20 minimal control and 100 = complete control.

[2] = system: Yellow nutsedge; assay: Test 11 citrus pots, postemergence to the weeds; type: in vivo, Cyperus esculentus; details: Postemergence 32 g/ha, 0.25% X-77 surfactant, scale 0-100
Description: (§3) Budded citrus seedlings were planted in 30-liter plastic pots which were also seeded with sandbur, guineagrass, narrowleaf panicum, common ragweed, yellow nutsedge, purple nutsedge and bindweed. Compound I was applied preemergence and postemergence to the weeds. Treatments were sprayed to simulate the trunk-to-trunk herbicide application method used in some citrus groves. The compound was also applied postemergence to weeds grown in windowsill flats. The flats were filled with planting medium and seeded with morningglory (Ipomoea spp.). purple nutsedge (Cyperus rotundus), pigweed (Amaranthus spp.), bindweed (Convolvulus spp.), narrowleaf panicum (Panicum maximum), common ragweed (Ambrosia artemisiifolia), sandbur (Cenchrus echinatus), itchgrass (Rottboellia exaltata), johnsongrass (Sorghum halepense), guineagrass (Panicum maximum), smooth crabgrass (Digitaria ischaemum), broadleaf signalgrass (Brachiaria platyphylla), bermudagrass (Cynodon dactylon), goosegrass (Eleusine indica), large crabgrass (Digitaria sanguinalis) and yellow nutsedge (Cyperus esculentus).
(§4) The compound was formulated and sprayed with 0.25% X-77 surfactant in water. Plants were visually rated 21 and 29 days after treatment and compared with appropriate controls. Injury ratings were based on the scale of 0 to 100, where 0 indicates no effect, 20 indicates minimum effect and 100 indicates complete control. […]

[3] = system: Red clover; assay: Test 7 postemergence; type: in vivo, Trifolium pratense; details: scale 0-100
Description: (§5) Individual 11.4-cm plastic pots filled with planting medium were seeded with rape, wild radish (Raphanus raphanistruna). tansy mustard (Descurainia pinnata), ball mustard (Neslia paniculata), black mustard (Brassica nigra), yellow mustard, brown mustard, lentils, safflower, flax, sunflower, peanut, vetch, alfalfa, field bean, pea, violet (Viola spp), Kochia (Kochia spp), Russian thistle (Salsola spp), Matricaria spp, groundsel (Senecio spp), shepherdspurse (Capsella bursa-pastoris), nightshade (Solanum spp), sowthistle (Sonchus spp), sugar beet, wheat, "Bonanza" barley and "Morex" barley, Kentucky bluegrass (Poa pratensis), red clover (Trifolium pratense), dandelion (Taraxacum spp) and buckhorn plantain (Plantago lanceolata).
(§6) Plants were treated postemergence with the compound formulated with a non-phytotoxic carrier. Plants were visually rated 18 days after treatment (DAT). Response ratings were based on the scale of 0 to 100 where 0 = no effect, 20 = minimal injury and 100 = complete control.

[4] = system: Lalang; assay: Test 9 postemergence; type: in vivo; details: scale 0-100
[5] = system: Common ragweed; assay: Test 11 citrus pots, preemergence to the weeds; type: in vivo, Ambrosia artemisiifolia; details: Preemergence 32 g/ha; 0.25% X-77 surfactant; scale 0-100
Description: as §3, §4

[6] = system: Loblolly pine; assay: Test 13 conifer seedlings, postemergence; type: in vivo; details: scale 0-100
From the text: Conifer species (Loblolly pine) seedlings were transplanted into 15-cm plastic pots filled with planting medium. Compound I was applied postemergence to the loblolly pine seedlings. The compound was formulated in a non-phytotoxic spray solvent. Plans were visually rated 240 days after treatment (DAT) and compared with appropriate controls. Injury ratings are based on the scale of 0 to 100, where 0 indicates no effect, 20 indicates minimal injury and 100 indicates complete kill.

[7] = system: Sandbur; assay: Test 11 citrus pots, preemergence to the weeds; type: in vivo, Cenchrus echinatus; details: Preemergence 32 g/ha; 0.25% X-77 surfactant; scale 0-100
Description: as §3, §4

[8] = system: Guinea Grass; assay: Test 5 sugarcane injury and weed control, postemergence; type: in vivo, P. maximum; details: scale 0-100
Description: Sugarcane (Saccharum spp.) cuttings which had been pre-sprouted were planted in 15-cm plastic pots. Narrowleaf panicum (Panicum maximum), large crabgrass (Digitaria sanguinalis), guineagrass (P. maximum) and itchgrass (Rottboellia exaltata) were seeded in individual 15-cm plastic pots.
The pots were treated postemergence when the plants had 3 to 4 leaves with 2 to 3 tillers with Compound I formulated in a non-phytotoxic carrier made up of acetone-humectant-water-surfactant (22:1:1:0.05 v/v). The degree of crop injury and weed control was visually rated 27 days after treatment (DAT). Plant injury ratings are based on the scale of 0 to 100 where 0 = no effect, 20 = minimal injury and 100 = complete control.

[9] = system: Dandelion; assay: Test 7 postemergence; type: in vivo, Taraxacum spp; details: scale 0-100
Description: as §5, §6

[10] = system: Wild oats; assay: Test 10 postemergence safety to crops and weed control; type: in vivo, Avena fatua; details: 16 g/ha, scale 0-100
Description: as §1, §2

[11] = system: Broadleaf signalgrass; assay: Test 11 windowsill flats, postemergence; type: in vivo, Brachiaria platyphylla; details: Postemergence 32 g/ha, 0.25% X-77 surfactant, scale 0-100
Description: as §3, §4

[12] = system: Sowthistle; assay: Test 7 postemergence; type: in vivo, Sonchus spp; details: scale 0-100
Description: as §5, §6

[13] = system: Bahia grass; assay: Test 9 postemergence; type: in vivo, bahiagrass; details: 16 g/ha, scale 0-100
Description: (§7) Plastic windowsill pots containing planting medium were seeded with bahiagrass, bindweed (Convolvulus spp), guinea grass (Panicum maximum), large crabgrass (Digitaria sanguinalis) and pigweed (Amaranthus spp). Individual 15-cm plastic pots contained sandbur (Cenchrus echinatus), Mikania cordata, Boston fern (Nephrolepis exalata), quackgrass (Agropyron repens), elephantgrass (Pennisetum purpureum) and sowthistle (Sonchus spp) plants.
(§8) Plants were treated postemergence with Compound I formulated in a non-phytotoxic solvent. Plants were visually rated 22 days after treatment (DAT). Injury and weed control ratings were based on the scale of 0 to 100 where 0 = no effect, 20 = minimal control and 100 = complete control.

[14] = system: Elephantgrass; assay: Test 9 postemergence; type: in vivo, Pennisetum purpureum; details: scale 0-100
Description: as §7, §8

COC(=O)c1cccnc1S(=O)(=O)NC(=O)Nc1nc(OC)cc(OC)n1 [Compound I, 2-[[(4,6-dimethoxypyrimidin-2-yl)aminocarbonyl]aminosulfonyl]-3-pyridinecarboxylic acid, methyl ester]
Plant Injury Rating 15 DAT [1]: 100 | Injury ratings [2]: 100 | Plant Injury Rating 18 DAT ([3]; 16 g/ha): 100 | Plant Injury Rating 18 DAT ([3]; 32 g/ha): 100 | Plant Injury Rating 22 DAT ([4]; 8 g/ha): 0 | Plant Injury Rating 22 DAT ([4]; 16 g/ha): 0 | Plant Injury Rating 22 DAT ([4]; 32 g/ha): 20 | Injury ratings [5]: 20 | Plant Injury Rating 240 DAT ([6]; 8 g/ha): 0 | Plant Injury Rating 240 DAT ([6]; 16 g/ha): 0 | Plant Injury Rating 240 DAT ([6]; 32 g/ha): 0 | Plant Injury Rating 240 DAT ([6]; 64 g/ha): 0 | Plant Injury Rating 240 DAT ([6]; 125 g/ha): 0 | Injury ratings [7]: 100 | Plant Injury Rating 27 DAT ([8]; 8 g/ha): 30 | Plant Injury Rating 27 DAT ([8]; 16 g/ha): 70 | Plant Injury Rating 27 DAT ([8]; 32 g/ha): 80 | Plant Injury Rating 27 DAT ([8]; 64 g/ha): 100 | Plant Injury Rating 18 DAT ([9]; 16 g/ha): 100 | Plant Injury Rating 18 DAT ([9]; 32 g/ha): 100 | Plant Injury Rating 15 DAT [10]: 100 | Injury ratings [11]: 100 | Plant Injury Rating 18 DAT ([12]; 16 g/ha): 100 | Plant Injury Rating 18 DAT ([12]; 32 g/ha): 100 | Plant Injury Rating 22 DAT [13]: 40 | Plant Injury Rating 22 DAT ([14]; 8 g/ha): 0 | Plant Injury Rating 22 DAT ([14]; 16 g/ha): 50 | Plant Injury Rating 22 DAT ([14]; 32 g/ha): 70
